From patent publication US20220267277A1, “DOPAMINE RECEPTOR D1 AGONISTS AND METHODS OF USE” (Sanford Burnham Prebys Medical Discovery Institute, priority 2019, published 2022)
Like-named read-outs stand apart in the source and are kept apart here.

Experiments:
DR1 = molecular target: T1, DR1 (Homo sapiens, UniProt P21728); test: DR1 agonism EC50 (Example B-1, Table 4); format: cell-based
T1 construct: endogenous in cells; host or cells: IPF patient derived fibroblasts
Description: cAMP Assay: IPF patient derived fibroblasts are plated in EMEM containing 10% FBS overnight. […] Twenty minutes prior to cell lysis the media is removed and cells are treated with “induction buffer” containing nonselective phosphodiesterase inhibitors and the indicated concentration of compound(s). Luminescence is measured on a Flexstation 3 (Molecular Devices) plate reader.
(§1) Example B-1: Enzyme Assay of Inhibition of YAP/TAZ and DR1

YAP/TAZ = test: Inhibition of YAP/TAZ (Example B-1, Table 4); format: cell-based
Description: as §1

Col1a1 = settings: 10 μM; precision cut lung slices cultured for 3 days; aged mice (24 months) injured with bleomycin
[1] = system: YAP/TAZ nuclear localization in human lung fibroblasts; test: YAP/TAZ nuclear localization in human lung fibroblasts (FIG. 1)

T1 sequence (P21728 whole entry): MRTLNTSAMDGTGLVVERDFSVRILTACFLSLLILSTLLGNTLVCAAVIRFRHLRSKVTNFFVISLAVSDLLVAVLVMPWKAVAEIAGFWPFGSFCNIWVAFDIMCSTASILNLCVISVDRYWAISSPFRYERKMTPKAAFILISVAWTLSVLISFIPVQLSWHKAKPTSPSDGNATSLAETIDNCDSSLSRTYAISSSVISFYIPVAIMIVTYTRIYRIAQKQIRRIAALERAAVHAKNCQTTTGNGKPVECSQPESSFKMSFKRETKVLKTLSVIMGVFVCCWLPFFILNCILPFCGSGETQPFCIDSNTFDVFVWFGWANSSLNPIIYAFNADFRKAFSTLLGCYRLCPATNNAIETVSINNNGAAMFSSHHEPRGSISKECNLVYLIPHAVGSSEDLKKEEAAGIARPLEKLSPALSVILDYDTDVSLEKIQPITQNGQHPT

Molecule | EC50 (DR1; read-out: DR1 EC50) | IC50 (YAP/TAZ) | expression of Col1a1 (Col1a1) | inhibition of YAP/TAZ nuclear localization [1] | EC50 (DR1)
COc1ccc(C2CNCc3sccc32)cc1OC (centres unmarked) [4-(3,4-dimethoxyphenyl)-4,5,6,7-tetrahydrothieno[2,3-c]pyridine] | 1000 to 20000 nM | 1000 to 20000 nM | – | – | –
Cc1cc2c(cc1O)CN[C@H]1CCc3cc(O)c(O)cc3[C@H]21 (relative stereo) [Compound 3, Trans-(6a,12b)-2-methyl-5,6,6a,7,8,12b-hexahydro-benzo[a]phenanthridine-3,10,11-triol] | – | – | inhibits expression of Col1a1 | inhibit YAP/TAZ nuclear localization | –
COc1cc(C2CNCc3sccc32)cc(Cl)c1OC (centres unmarked) [4-(3-chloro-4,5-dimethoxyphenyl)-4,5,6,7-tetrahydrothieno[2,3-c]pyridine] | 1000 to 20000 nM | 1000 to 20000 nM | – | – | –
Oc1ccc2c(c1)[C@@H]1c3cc(O)c(O)cc3CC[C@H]1NC2 [(6aR,12bS)-5,6,6a,7,8,12b-hexahydrobenzo[a]phenanthridine-2,10,11-triol] | – | 1000 to 20000 nM | – | – | < 1000 nM
COc1c(O)cc(C2CNCc3sccc32)cc1Cl (centres unmarked) [3-chloro-2-methoxy-5-(4,5,6,7-tetrahydrothieno[2,3-c]pyridin-4-yl)phenol] | 1000 to 20000 nM | 1000 to 20000 nM | – | – | –
Oc1ccc([C@@H]2CNCc3sccc32)cc1O [(S)-4-(4,5,6,7-tetrahydrothieno[2,3-c]pyridin-4-yl)benzene-1,2-diol] | < 1000 nM | 1000 to 20000 nM | – | – | –
CCCc1csc2c1C(c1ccc(O)c(O)c1)CNC2 (centres unmarked) [4-(3-propyl-4,5,6,7-tetrahydrothieno[2,3-c]pyridin-4-yl)benzene-1,2-diol] | 1000 to 20000 nM | 1000 to 20000 nM | – | – | –
Oc1cc2c(cc1O)[C@H]1c3ccc(O)c(O)c3CN[C@@H]1CC2 [(6aR,12bS)-5,6,6a,7,8,12b-hexahydrobenzo[a]phenanthridine-3,4,10,11-tetraol] | – | 1000 to 20000 nM | – | – | –
CCCc1csc2c1[C@H](c1ccc(O)c(O)c1)CNC2 [(S)-4-(3-propyl-4,5,6,7-tetrahydrothieno[2,3-c]pyridin-4-yl)benzene-1,2-diol] | 1000 to 20000 nM | 1000 to 20000 nM | – | – | –
Oc1ccc(C2CNCc3cnccc32)cc1O (centres unmarked) [4-(1,2,3,4-tetrahydro-2,7-naphthyridin-4-yl)benzene-1,2-diol] | – | 1000 to 20000 nM | – | – | –
CCCc1csc2c1[C@@H](c1ccc(O)c(O)c1)CNC2 [(R)-4-(3-propyl-4,5,6,7-tetrahydrothieno[2,3-c]pyridin-4-yl)benzene-1,2-diol] | 1000 to 20000 nM | 1000 to 20000 nM | – | – | –
Oc1ccc([C@H]2CNCc3sccc32)cc1O [(R)-4-(4,5,6,7-tetrahydrothieno[2,3-c]pyridin-4-yl)benzene-1,2-diol] | < 1000 nM | 1000 to 20000 nM | – | – | –
CN1Cc2sccc2C(c2ccc(O)c(O)c2)C1 (centres unmarked) [4-(6-methyl-4,5,6,7-tetrahydrothieno[2,3-c]pyridin-4-yl)benzene-1,2-diol] | 1000 to 20000 nM | 1000 to 20000 nM | – | – | –
Cc1cc2c(cc1O)CN[C@H]1CCc3cc(O)c(O)cc3[C@H]21 [(6aS,12bR)-2-methyl-5,6,6a,7,8,12b-hexahydrobenzo[a]phenanthridine-3,10,11-triol] | – | 1000 to 20000 nM | – | – | < 1000 nM
Oc1cc(C2CNCc3sccc32)cc(Cl)c1O (centres unmarked) [3-chloro-5-(4,5,6,7-tetrahydrothieno[2,3-c]pyridin-4-yl)benzene-1,2-diol] | < 1000 nM | 1000 to 20000 nM | – | – | –
Oc1cc2c(cc1O)[C@@H]1c3ccc(O)c(O)c3CN[C@@H]1CC2 [(6aR,12bR)-5,6,6a,7,8,12b-hexahydrobenzo[a]phenanthridine-3,4,10,11-tetraol] | – | 1000 to 20000 nM | – | – | –
CCCc1csc2c1C(c1ccc(OC)c(OC)c1)CNC2 (centres unmarked) [4-(3,4-dimethoxyphenyl)-3-propyl-4,5,6,7-tetrahydrothieno[2,3-c]pyridine] | 1000 to 20000 nM | 1000 to 20000 nM | – | – | –
(6aR,12bS)-10,11-dimethoxy-2-methyl-5,6,6a,7,8,12b-hexahydrobenzo[a]phenanthridin-3-ol [Compound 4a] | – | – | – | inhibit YAP/TAZ nuclear localization | –
